Usually Cmax stands for the highest concentration seen after dosing. As usually defined, the AUC(0-inf) is the area under the concentration-time curve extrapolated to infinity. Read a low AUC(0-inf) as low exposure.

The structures appear in SMILES notation.

Data set [1] in a line: in vivo. The settings on record: Sprague-Dawley, rat, po, 25 mg/kg.
Data set [2] is described as follows: in vivo. The conditions noted are these: Sprague-Dawley, rat, iv, 5 mg/kg.
Data set [3] can be described thus: in vivo. The settings on record: Sprague-Dawley, rat, iv, 5 mg/kg. The source holds these as a separate data set.

As to `Cc1cn(-c2cc(NC(=O)c3ccc4c(c3)C[C@H](N(C)c3cncnc3)C4)cc(C(F)(F)F)c2)cn1`, the Cmax turned out to be 15400 ng/mL in the data set “in vivo [1]” and 14700 ng/mL in the data set “in vivo [2]”. In “in vivo [3]”, the AUC(0-inf) was 16900 ng·h/mL.

For the origin of these results see ChEMBL document CHEMBL4406813, “2-Amino-2,3-dihydro-1H-indene-5-carboxamide-Based Discoidin Domain Receptor 1 (DDR1) Inhibitors: Design, Synthesis, and in Vivo Antipancreatic Cancer Efficacy” (J Med Chem, 2019).
